Laboratory results as given in patent US20070060605A1, “Compositions and methods for inhibiting platelet activation and thrombosis” (priority 2001, published 2007).
Like-named read-outs stand apart in the source and are kept apart here.

Assays:
Type in all cases: cell-based, human
platelets = experiment: Agonist-induced platelet granule secretion / activation (P-selectin expression by flow cytometry; ADP/ATP release); conditions: for Inhibition of PMA-induced platelet responses: even at millimolar concentrations
Protocol: In order to monitor ATP release, a cocktail of 100 μM SFLLR (synthesized using solid phase Fmoc chemistry on an Applied Biosystems model 430A peptide synthesizer) and 3 mg/ml of luciferin/luciferase (Sigma, St. Louis, Mo.) in a volume of 10 μl is added to 20 μl of PRP. Samples are immediately analyzed for luminescence. Activated platelets supply the ATP necessary for luminescence of the luciferin/luciferase assay. Assays can be performed at high throughput through use of a microtiter plate system, e.g., 384-well plates and a Multidrop 384 (Thermo Labsystems, Helsinki), read with a high density imaging system, e.g., the Tundra system (Imaging Research, St. Catherine's, Ontario).
(§1) In order to assay platelet activation by cell surface marker expression, fresh PRP is isolated from donors who have not ingested aspirin for two weeks prior to donation. PRP (40 μl) is incubated with known or suspected inhibitor in DMSO or DMSO alone for 15 min. The sample is then incubated with the indicated agonist (e.g., SFLLR) for 10 min. Following incubation of the sample with the indicated agonist, 10 μl of reaction mixture is transferred to 5 μl of phycoerythrin (PE)-conjugated AC 1.2 anti-P-selectin antibody (for assessment of P-selectin surface expression) or fluorescein isothiocyanate (FITC)-conjugated PAC-1 antibody (for assessment of GPIIbIIIa activation). PBS (500 μl) is added to the sample after a 20 min incubation and the platelets are analyzed immediately by flow cytometry. Flow cytometry can be performed using, for example, a Becton-Dickinson FACSCalibur flow cytometer or its equivalent. Fluorescent channels are set at logarithmic gain. Ten thousand particles are acquired for each sample. A 530/30 band pass filter is used for FL-1 fluorescence. A 585/42 band pass filter is used for FL-2 fluorescence. FITC is measured in the FL-1 channel and PE is measured in the FL-2 channel. Data are analyzed using, for example, CellQuest software on a Macintosh PowerPC, or their equivalents.
Compounds were tested for the ability to inhibit agonist-induced ADP/ATP release from platelet dense granules using a luciferin-luciferase reporter system. In this assay, compounds were incubated with platelet-rich plasma (PRP) for 30 min. A cocktail of the platelet agonist and luciferin-luciferase was then added to the wells. Plates were immediately analyzed using a Tundra high density luminescence imager. […] As a control, compounds were also screened in a platelet-free assay for the ability to inhibit luciferin-luciferase upon exposure to ATP.
Each of the compounds was tested for inhibition of platelet activation in response to the agonists SFLLR (a thrombin mimic), U46619 (a thromboxane A2 mimic), ADP and the phorbol ester PMA.
(§2) Compounds were also tested by flow cytometry for the inhibition of SFLLR-induced GPIIbIIIa activation and P-selectin expression. In these experiments, freshly obtained PRP was prepared from healthy volunteers who had not ingested aspirin for two weeks prior to donation. Forty μl of PRP was incubated with inhibitor in DMSO or DMSO alone for 15 min. The sample was then incubated with the indicated agonist for 10 min. Following incubation of the sample with the indicated agonist, 10 μl of reaction mixture was transferred to 5 μl of PE-conjugated AC1.2 anti-P-selectin antibody (for assessment of P-selectin surface expression) or FITC-conjugated PAC-1 antibody (for assessment of GPIIbIIIa activation). PBS (500 μl) was added to the sample after a 20 min incubation and the platelets were analyzed immediately by flow cytometry. Flow cytometry was performed using a Becton-Dickinson FACSCalibur flow cytometer. Fluorescent channels were set at logarithmic gain. Ten thousand particles were acquired for each sample. A 530/30 band pass filter was used for FL-1 fluorescence. A 585/42 band pass filter was used for FL-2 fluorescence. FITC was measured in the FL-1 channel and PE was measured in the FL-2 channel.

platelet GPIIbIIIa = experiment: SFLLR-induced GPIIbIIIa activation (PAC-1 antibody, flow cytometry); conditions: Homo sapiens, Platelet; agonist SFLLR; read-out: IC50s of inhibition of platelet GPIIbIIIa activation induced with SFLLR
Protocol: as §1
as §2, with “channel. Data were analyzed using CellQuest software on a MacIntosh PowerPC.” for “channel.”

[1] = tested on: PGE1-induced cAMP levels in platelets; experiment: Augmentation of PGE1-induced cAMP levels in platelets; conditions: no single concentration
Protocol: One frequent target of anti-platelet agents is phosphodiesterase III (PDE III). […] The assay is performed as described by Liao et al., 1998, Eur J Pharmacol 349,107-114, incorporated herein by reference. Briefly, aliquots of PRP are exposed to increasing concentrations of the agent for 20 minutes. The PRP is then challenged with 1 μM PGE1 for 2 min The reaction is stopped by adding 10 mM EDTA, followed immediately by boiling for 2 min. The mixture is cooled to 4° C. and the precipitated protein is pelleted. cAMP content in the supernatant is quantitated using an enzyme immunoassay kit (Pharmacia-Amersham, N.J.) according to the instructions of the manufacturer.
In order to assess whether the compounds useful according to the invention might act through inhibition phosphodiesterase III, each was tested for its effect on PGE1-induced cAMP increase. Determination of platelet cAMP levels was performed as described by Liao et al., 1998, supra. Aliquots of PRP were exposed to increasing concentrations of the indicated compounds for 20 min. PRP was then challenged with 1 μM PGE1 for 2 min. The reaction was stopped with the addition of 10 mM EDTA followed immediately by boiling for 2 min. The mixture was then cooled to 4° C. and the precipitated protein was pelleted. Cyclic AMP content in the supernatant was then quantified using an enzyme immunoassay kit (Pharmacia-Amersham, N.J.) according to the instructions of the manufacturer.

[2] = Homo sapiens, Platelet, agonist SFLLRN/SFLLR, human platelets, read-out: IC50 SFLLRN-induced P-selectin expression, flow cytometry
[3] = Homo sapiens, Platelet, agonist ADP, read-out: IC50s of inhibition of platelet granule secretion induced with ADP
[4] = Homo sapiens, Platelet, agonist PMA, read-out: IC50s of inhibition of platelet granule secretion induced with PMA
[5] = Homo sapiens, Platelet, agonist U-46619, read-out: IC50s of inhibition of platelet granule secretion induced with U-46619
[6] = Homo sapiens, Platelet, agonist SFLLR, read-out: IC50s of inhibition of platelet granule secretion induced with SFLLR
[7] = Homo sapiens, Platelet, agonists U-46619, ADP, PMA, read-out: IC50 U-46619-, ADP-, and PMA-induced platelet responses
[8] = Homo sapiens, Platelet, agonists SFLLR and U-46619, read-out: IC50 SFLLR- and U-46619-induced activation

Row | SMILES | IC50 (platelet GPIIbIIIa) | IC50 (platelets; [3]) | IC50 (platelets; [4]) | IC50 (platelets; [5]) | IC50 (platelets; [6]) | other results
1 | O=C1NC(=O)N(c2cccc3ccccc23)C(=O)/C1=C\c1ccco1 [5-(2-furanylmethylene)-1-1-naphthalenyl)-2,4,6(1H, 3H, 5H)-pyrimidinetrione] | 100 µM |  |  |  |  | IC50 (platelets; Homo sapiens, Platelet, read-out: IC50s of inhibition of platelet granule secretion induced with ADP): 60 µM; IC50 (platelets; Homo sapiens, Platelet, read-out: IC50s of inhibition of platelet granule secretion induced with PMA): 150 µM; IC50 (platelets; Homo sapiens, Platelet, read-out: IC50s of inhibition of platelet granule secretion induced with SFLLR): 100 µM; IC50 (platelets; Homo sapiens, Platelet, read-out: IC50s of inhibition of platelet granule secretion induced with U-46619): 50 µM
2 | CCCn1c2c(c(=N)c3ccccc31)CCC2 [JF081204{3C}] |  |  |  |  |  | IC50 (platelets; [2]): 2 to 150 µM
3 | CCOC(=O)C1(C2(O)C(=O)c3ccccc3C2=O)CCCC1=O (centres unmarked) [1-(2-hydroxy-1,3-dioxo-indan-2-yl)-2-oxo-cyclopentanecarboxylic acid ethyl ester] | 50 µM | 50 µM | > 1000 µM | 30 µM | 50 µM | Inhibition of PMA-induced platelet responses (platelets; agonist PMA): no activity
4 | Nc1cc2cccnc2c2ncccc12 [[1,10]Phenanthroline-5-ylamine] | 50 µM | 50 µM | > 1000 µM | 30 µM | 50 µM | Effect on PGE1-stimulated cAMP levels in platelets [1]: failed to augment; IC50 (platelets; agonist ADP, read-out: IC50s of inhibition of platelet granule secretion induced with ADP): 100 µM; Inhibition of PMA-induced platelet responses (platelets; agonist PMA): did not inhibit
5 | CCCCn1c2c(c(=N)c3ccccc31)CCC2 [JF081204{4C}] |  |  |  |  |  | IC50 (platelets; [2]): 2 to 150 µM
6 | CCCCn1c2c(c(=N)c3ccccc31)CCC2 [II] |  |  |  |  |  | IC50 (platelets; [7]): ~500 µM
7 | CC1CC(=O)NN=C1c1ccc(Cl)cc1 (centres unmarked) [Structure 9, 6-(4-chlorophenyl)-5-methyl-4,5-dihydro-5 methyl-3(2H)-pyridazinone] |  | 8 µM |  |  |  | ADP-induced responses inhibited less effectively than SFLLR and U46619 responses (platelets; ADP vs SFLLR and U46619): approximately 20 fold; IC50 (platelets; [8]): 0.3 µM; Inhibition of PMA-induced platelet activation (platelets; agonist PMA): did not inhibit
8 | CCCn1c2c(c(=N)c3ccccc31)CCC2 [I] |  |  |  |  |  | IC50 (platelets; [7]): ~500 µM
9 | CCCCCn1c2c(c(=N)c3ccccc31)CCC2 [III] |  |  |  |  |  | IC50 (platelets; [7]): ~500 µM
10 | Cn1cc(/C=N/NC(N)=O)c2ccccc21 [2-[(1-methyl-1H-indol-3-yl)methylene]-hydrazinecarboxamide] |  | 1000 µM | 1000 µM | 20 µM | 50 µM | Effect on PGE1-stimulated cAMP levels in platelets [1]: augmented; IC50 (platelets; [8]): 20 to 50 µM; Effect on ADP- and PMA-induced activation (platelets; agonists ADP and PMA): little effect
11 | CC(=O)OC(CC(=O)c1ccc(Cl)cc1Cl)C(Cl)(Cl)Cl (centres unmarked) [acetic acid 3-(2,4-dichlorophenyl)-3-oxo-1-trichloromethyl-propyl ester] | 30 µM | 200 µM | 200 µM | 20 µM | 50 µM | IC50 (platelets; Homo sapiens, Platelet, agonists ADP and PMA, read-out: IC50 ADP- and PMA-induced activation): ~200 µM; IC50 (platelets; [8]): 20 to 50 µM
12 | O=C(CN1CCOCC1)N1c2ccccc2Sc2ccc(C(F)(F)F)cc21 [10H-phenothiazine, 10-(4-morpholinylacetyl)-2-(trifluoromethyl)] | 50 µM | 150 µM | 85 µM | 100 µM | 80 µM | 
